Results reported in ChEMBL document CHEMBL4152349, “A Fragment-Derived Clinical Candidate for Antagonism of X-Linked and Cellular Inhibitor of Apoptosis Proteins: 1-(6-[(4-Fluorophenyl)methyl]-5-(hydroxymethyl)-3,3-dimethyl-1 H,2 H,3 H-pyrrolo[3,2- b]pyridin-1-yl)-2-[(2 R,5 …” (J Med Chem, 2018).
Blank lines part the entries; values can stand above or below the compound they belong to. Activity calls are given as the source filed them. The calls are words filed in the database; no cut-off is given here.

Columns and labels:
[1] = Chromatographic hydrophobicity index, log D of the compound at pH 7.4 by HPLC method; format: physicochemical; conditions: buffer
MDA-MB-231 [2] = test: cells; conditions: Homo sapiens, MDA-MB-231, 72 h
hERG (KCNH2) = hERG (KCNH2) (Homo sapiens, UniProt Q12809); test: in vitro; conditions: CHO-K1 cells expressing human ERG
Chain of hERG (KCNH2) (Q12809 whole entry): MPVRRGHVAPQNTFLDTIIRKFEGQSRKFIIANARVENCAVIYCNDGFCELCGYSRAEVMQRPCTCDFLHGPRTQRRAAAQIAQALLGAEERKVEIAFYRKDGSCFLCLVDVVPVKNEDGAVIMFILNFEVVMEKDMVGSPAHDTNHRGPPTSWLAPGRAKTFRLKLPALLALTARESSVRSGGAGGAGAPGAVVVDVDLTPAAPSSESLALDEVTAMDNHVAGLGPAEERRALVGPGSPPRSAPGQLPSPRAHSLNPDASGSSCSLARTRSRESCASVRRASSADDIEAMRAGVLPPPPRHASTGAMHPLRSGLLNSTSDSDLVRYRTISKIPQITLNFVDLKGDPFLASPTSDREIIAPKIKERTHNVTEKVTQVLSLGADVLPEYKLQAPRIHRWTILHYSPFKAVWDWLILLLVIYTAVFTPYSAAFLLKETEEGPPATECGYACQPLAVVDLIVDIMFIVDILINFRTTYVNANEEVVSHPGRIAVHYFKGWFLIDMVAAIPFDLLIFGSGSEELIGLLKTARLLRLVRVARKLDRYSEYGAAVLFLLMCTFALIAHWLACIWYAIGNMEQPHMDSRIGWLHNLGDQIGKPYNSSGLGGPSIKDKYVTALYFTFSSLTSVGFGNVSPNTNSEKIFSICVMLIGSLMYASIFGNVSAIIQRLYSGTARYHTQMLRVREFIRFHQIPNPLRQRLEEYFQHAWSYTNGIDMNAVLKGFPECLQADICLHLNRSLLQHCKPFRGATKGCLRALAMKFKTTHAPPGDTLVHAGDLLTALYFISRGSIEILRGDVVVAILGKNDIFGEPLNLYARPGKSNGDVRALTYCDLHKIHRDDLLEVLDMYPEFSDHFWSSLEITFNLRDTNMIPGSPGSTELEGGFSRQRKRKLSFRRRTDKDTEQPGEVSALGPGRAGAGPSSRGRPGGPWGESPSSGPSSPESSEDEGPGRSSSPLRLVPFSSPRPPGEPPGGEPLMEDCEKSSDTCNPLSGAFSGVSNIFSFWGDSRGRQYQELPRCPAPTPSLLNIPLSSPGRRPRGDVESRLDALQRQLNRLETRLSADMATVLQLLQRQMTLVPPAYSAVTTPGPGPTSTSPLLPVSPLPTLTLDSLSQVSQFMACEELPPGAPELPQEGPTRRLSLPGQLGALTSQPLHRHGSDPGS

CYP3A4 = CYP3A4 (Homo sapiens, UniProt P08684); test: in vitro; conditions: human CYP3A4 supersomes
Chain of CYP3A4 (P08684 whole entry): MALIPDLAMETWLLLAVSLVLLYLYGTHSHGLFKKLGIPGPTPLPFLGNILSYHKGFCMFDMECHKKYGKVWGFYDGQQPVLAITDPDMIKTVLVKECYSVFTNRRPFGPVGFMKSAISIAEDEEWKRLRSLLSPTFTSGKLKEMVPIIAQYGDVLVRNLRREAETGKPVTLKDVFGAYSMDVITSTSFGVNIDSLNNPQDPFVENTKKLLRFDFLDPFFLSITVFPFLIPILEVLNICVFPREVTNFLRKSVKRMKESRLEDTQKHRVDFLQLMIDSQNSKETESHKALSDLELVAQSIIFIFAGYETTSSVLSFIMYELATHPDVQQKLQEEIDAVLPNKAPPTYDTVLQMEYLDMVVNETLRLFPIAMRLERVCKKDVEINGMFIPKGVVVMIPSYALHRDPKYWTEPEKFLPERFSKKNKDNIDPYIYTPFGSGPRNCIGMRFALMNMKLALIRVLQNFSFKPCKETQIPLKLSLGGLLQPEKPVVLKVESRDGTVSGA

[3] = Oral bioavailability in Balb/c mouse at 5 mg/kg by UHPLC and ESI mass spectrometry; format: ADME, organism-based; conditions: in vivo
[4] = Oral bioavailability in Balb/c mouse at 10 mg/kg by UHPLC and ESI mass spectrometry; format: ADME, organism-based; conditions: in vivo
in vivo [5] = conditions: cynomolgus monkey, po, 5 mg/kg
[6] = Cmax in cynomolgus monkey at 5 mg/kg, po by UHPLC and ESI mass spectrometry; format: ADME, organism-based, Macaca fascicularis; set-up: dose 5 mg/kg, route oral; conditions: in vivo
[7] = Plasma clearance in Balb/c mouse at 5 mg/kg, iv or 10 mg/kg, po by UHPLC and ESI mass spectrometry; format: ADME, organism-based
[8] = Plasma clearance in Sprague-Dawley rat at 5 mg/kg, iv or 10 mg/kg, po by UHPLC and ESI mass spectrometry; format: ADME, organism-based
[9] = Volume of distribution at steady state in Balb/c mouse at 5 mg/kg, iv or 10 mg/kg, po by UHPLC and ESI mass spectrometry; format: ADME, organism-based; conditions: in vivo, read-out: Vdss
[10] = Volume of distribution at steady state in Sprague-Dawley rat at 5 mg/kg, iv or 10 mg/kg, po by UHPLC and ESI mass spectrometry; format: ADME, organism-based; conditions: in vivo, read-out: Vdss
[11] = Cmax in Balb/c mouse at 10 mg/kg, po by UHPLC and ESI mass spectrometry; format: ADME, organism-based; set-up: dose 10 mg/kg, route oral; conditions: in vivo
[12] = Cmax in Sprague-Dawley rat at 10 mg/kg, po by UHPLC and ESI mass spectrometry; format: ADME, organism-based; set-up: dose 10 mg/kg, route oral; conditions: in vivo
[13] = Oral bioavailability in Sprague-Dawley rat at 10 mg/kg by UHPLC and ESI mass spectrometry; format: ADME, organism-based; conditions: in vivo
Cynomolgus monkey = test: Cardiotoxicity in cynomolgus monkey assessed as effect on QT interval at 100 mg/kg, po administered as single dose; format: toxicity, organism-based, Macaca fascicularis; conditions: in vivo
in vivo [14] = conditions: cynomolgus monkey, plasma, iv, 1 mg/kg
in vivo [15] = conditions: cynomolgus monkey, iv, 1 mg/kg
in vivo [16] = conditions: cynomolgus monkey, po, 60 mg/kg
[17] = Drug level in CD-1 mouse hepatocytes treated with 1-(6-(4-fluorobenzyl)-3,3-dimethyl-2,3-dihydro-1H-pyrrolo[3,2-b]pyridin-1-yl)-2-((2R,5R)-5-methyl-2-(((R)-3-methylmorpholino)methyl)piperazin-1-yl)ethanone at 10 uM up to 90 mins by LC-MS analysis; format: ADME, cell-based, Hepatocyte
[18] = Drug level in human hepatocytes treated with 1-(6-(4-fluorobenzyl)-3,3-dimethyl-2,3-dihydro-1H-pyrrolo[3,2-b]pyridin-1-yl)-2-((2R,5R)-5-methyl-2-(((R)-3-methylmorpholino)methyl)piperazin-1-yl)ethanone at 10 uM up to 90 mins by LC-MS analysis; format: ADME, cell-based, Hepatocyte
[19] = Drug level in cynomolgus monkey hepatocytes treated with 1-(6-(4-fluorobenzyl)-3,3-dimethyl-2,3-dihydro-1H-pyrrolo[3,2-b]pyridin-1-yl)-2-((2R,5R)-5-methyl-2-(((R)-3-methylmorpholino)methyl)piperazin-1-yl)ethanone at 10 uM up to 90 mins by LC-MS analysis; format: ADME, cell-based, Macaca fascicularis, Hepatocyte
MDA-MB-231 [20] = test: Antitumor activity against human MDA-MB-231 cells xenografted in Balb/c mouse assessed as tumor growth inhibition at 16 mg/kg, po qd after 1 to 22 days; format: functional, organism-based
MDA-MB-231 [21] = test: Antitumor activity against human MDA-MB-231 cells xenografted in Balb/c mouse assessed as tumor growth inhibition at 20 mg/kg, po qd after 1 to 22 days; format: functional, organism-based
Mus musculus [22] = test: In vivo inhibition of XIAP interaction with SMAC in human MDA-MB-231 cells xenografted in Balb/c SCID mouse at 20 mg/kg, po administered as single dose measured up to 72 hrs by MSD plate-based assay; format: functional, organism-based
Mus musculus [23] = test: Reduction in cIAP1 level in tumor of Balb/c SCID mouse xenografted with human MDA-MB-231 cells at 20 mg/kg, po administered as single dose measured up to 72 hrs by MSD plate-based assay; format: functional, organism-based

SMILES: C[C@@H]1CN(CC(=O)N2CC(C)(C)c3nc(CO)c(Cc4ccc(F)cc4)cc32)[C@@H](CN2CCOC[C@H]2C)CN1 [ASTX-660]
Cmax [6]: 137 ng/mL
chromatographic logD [1]: 3.1
bioavailability [4]: 34%
clearance [7]: 41 mL/min/kg
clearance [8]: 38 mL/min/kg
Vd [9]: 2.7 L/kg
Vd [10]: 9.3 L/kg
Cmax [11]: 433 ng/mL
Cmax [12]: 117 ng/mL
bioavailability [13]: 29%
Activity (Cynomolgus monkey): Non-Toxic
bioavailability (in vivo [5]): 12%
clearance (in vivo [14]): 16 mL/min/kg
Vd (in vivo [15]): 6 L/kg
bioavailability (in vivo [16]): 50%

SMILES: C[C@@H]1COCCN1C[C@@H](CN)NCC(=O)N1CC(C)(C)c2ncc(Cc3ccc(F)cc3)cc21
Drug uptake [17]: Active
Drug uptake [18]: Active
Drug uptake [19]: Active

SMILES: C[C@@H]1CN(CC(=O)N2CC(C)(C)c3cc(=O)n(Cc4ccc(F)cc4)cc32)[C@@H](CN2[C@H](C)COC[C@H]2C)CN1
chromatographic logD [1]: 2.4

SMILES: C[C@@H]1CN(CC(=O)N2CC(C)(C)c3nc(CO)c(Cc4ccc(F)cc4)cc32)[C@@H](CN2CCOC[C@H]2C)CN1
TGI (MDA-MB-231 [20]): Active
TGI (MDA-MB-231 [21]): Active
Activity (Mus musculus [22]): Active
Activity (Mus musculus [23]): Active

SMILES: C[C@@H]1CN(CC(=O)N2CC(C)(C)c3nnc(Cc4ccc(F)cc4F)cc32)[C@@H](CN2Cc3ccc(C#N)cc3C2=O)CN1
chromatographic logD [1]: 2.9
IC50 (MDA-MB-231 [2]): 14 nM
inhibition at 10 min, 30 µM (hERG (KCNH2)): 18%
half-life at 40 min, 1 µM (CYP3A4): 34 min

More lines, main results first:

chromatographic logD [1]: 2.6
IC50 (MDA-MB-231 [2]): 1.9 nM
half-life at 40 min, 1 µM (CYP3A4): 37 min
SMILES: C[C@@H]1CN(CC(=O)N2CC(C)(C)c3nnc(Cc4ccc(F)cc4F)cc32)[C@@H](CN2Cc3cc(F)ccc3C2=O)CN1
inhibition at 10 min, 30 µM (hERG (KCNH2)): 25%

chromatographic logD [1]: 3.5
SMILES: C[C@@H]1CN(CC(=O)N2CC(C)(C)c3nc(CO)c(Cc4ccc(F)cc4)cc32)[C@@H](CN2[C@H](C)COC[C@H]2C)CN1

bioavailability [3]: 3%
chromatographic logD [1]: 2.4
bioavailability [4]: 2%
IC50 (MDA-MB-231 [2]): 5.4 nM
bioavailability (in vivo [5]): 18%
half-life at 40 min, 1 µM (CYP3A4): > 70 min
SMILES: C[C@@H]1CN(CC(=O)N2CC(C)(C)c3nnc(Cc4ccc(F)cc4F)cc32)[C@@H](CN2Cc3ccccc3C2=O)CN1
inhibition at 10 min, 30 µM (hERG (KCNH2)): 27%

chromatographic logD [1]: 2.7
SMILES: C[C@@H]1CN(CC(=O)N2CC(C)(C)c3[nH]c(=O)c(Cc4ccc(F)cc4)cc32)[C@@H](CN2[C@H](C)COC[C@H]2C)CN1

chromatographic logD [1]: 3
IC50 (MDA-MB-231 [2]): 5.2 nM
half-life at 40 min, 1 µM (CYP3A4): 42 min
SMILES: C[C@@H]1CN(CC(=O)N2CC(C)(C)c3nnc(Cc4ccc(F)cc4F)cc32)[C@@H](CN2Cc3cc(C#N)ccc3C2=O)CN1
inhibition at 10 min, 30 µM (hERG (KCNH2)): 19%

Drug uptake [17]: Active
Drug uptake [18]: Active
Drug uptake [19]: Active
SMILES: C[C@@H]1CN(CC(=O)N2CC(C)(C)c3ncc(Cc4ccc(F)cc4)cc32)[C@@H](CN)CN1
